This data set has as its target T1, BCRP (Homo sapiens, UniProt Q9UNQ0).
T1 construct: The cDNA encoding respective transporters were synthetized and cloned by GenScript; host or cells: HEK293 (lentiviral transduction), membrane vesicles
T1 sequence (Q9UNQ0 1-655): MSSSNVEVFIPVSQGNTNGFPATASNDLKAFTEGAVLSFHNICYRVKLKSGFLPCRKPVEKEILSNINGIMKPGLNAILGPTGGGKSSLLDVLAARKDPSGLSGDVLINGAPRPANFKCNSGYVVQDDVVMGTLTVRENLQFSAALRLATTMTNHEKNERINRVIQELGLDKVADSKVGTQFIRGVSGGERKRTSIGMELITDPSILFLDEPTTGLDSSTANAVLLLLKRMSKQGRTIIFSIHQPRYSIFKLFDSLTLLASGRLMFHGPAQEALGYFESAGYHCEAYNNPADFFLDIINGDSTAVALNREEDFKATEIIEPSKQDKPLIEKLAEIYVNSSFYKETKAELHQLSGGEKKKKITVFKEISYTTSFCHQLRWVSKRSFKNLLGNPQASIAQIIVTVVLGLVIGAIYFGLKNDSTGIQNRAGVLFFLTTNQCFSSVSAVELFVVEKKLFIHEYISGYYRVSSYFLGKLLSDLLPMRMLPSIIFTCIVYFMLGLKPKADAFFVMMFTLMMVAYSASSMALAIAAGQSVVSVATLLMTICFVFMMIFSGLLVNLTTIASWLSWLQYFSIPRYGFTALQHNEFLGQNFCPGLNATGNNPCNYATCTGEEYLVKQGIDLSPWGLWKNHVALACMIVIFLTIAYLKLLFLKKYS
As to the kind of experiment: Vesicular transport inhibition assay, BCRP membrane vesicles. The format is biochemical. The following applies: for Igut/IC50 ratio: BCRP, Igut = dose/250 mL, 500 mg dose of UT extract, ICH M12 cut-off 10; for IC50: oxindole alkaloids, substrate E3S, read-out: IC50 (95% CI of IC50). The text has this: The human embryonic kidney 293 (HEK293) cell line was purchased from Invitrogen/ThermoFisher (Waltham, MA, USA). Madin–Darby canine kidney II (MDCKII) wild type cells were obtained from the European Collection of Authenticated Cell Cultures (ECACC catalog no. 00062107). HEK293 cells overexpressing the human uptake OATP1B1 (NCBI Reference Sequence: NM_006446.4), OATP1B3 (NM_019844), OATP2B1 (NM_007256), OATP1A2 (NM_134431), OAT1-3 (BC033682.1; NM_006672.3; BC022387), OCT1-3 (BC126364.1; NM_003058; NM_021977), OCTN1 (NM_003059.3), NTCP (NM_003049.3), MATE1 (NM_018242.3), MATE2K (NM_001099646.2), ENT4 (NM_001040661.1), SGLT2 (AJ133127.1), ASCT1/2 (NM_003038.5; NM_005628.3), LAT1/2 (NM_003486.6; NM_012244.4), and THTR1/2 (NM_006996; NM_025243) and mock and human efflux BCRP (NM_004827.2), BSEP (NM_003742.2), MDR1 (NM_000927.4), and MRP1-5 (NM_004996; NM_000392.4; BC137347.1; NM_005845.4; NM_005688.2) transporters as well as MDCKII overexpressing human ENT1/2 (NM_001078177; NM_001532.2) and URAT1 (BC053348) transporters were created by lentiviral transduction. The cDNA encoding respective transporters were synthetized and cloned by GenScript (Piscataway, NJ, USA). The production of lentivirus supernatants, the transduction of the cells, cloning, functional characterization, and validation were performed by Charles River Laboratories Hungary Kft. (Budapest, Hungary).
Membrane vesicles were prepared from ABC transporter-overexpressing HEK293 cells by Charles River Laboratories Hungary Kft. as described previously in detail. Vesicles were frozen in liquid nitrogen and stored at −80 °C.
Vesicular transport inhibition assays were performed using a rapid filtration technique. In brief, the appropriate amount of the protein of each membrane vesicle was mixed with either the extract or isopteropodine, mitraphylline, or uncarine D at one concentration or with their half dilution series from 150 µg/mL or from 100 µM, the suitable transporter substrate, and the assay buffer on ice. Reaction mixtures were preincubated for 15 min at 37 °C with shaking at 250 rpm. Following preincubation, 4 mM Mg-ATP or AMP was added and incubated according to Table S3. Vesicular transport was terminated by adding an ice-cold washing buffer, and the reaction mix was transferred to a MSFBN6B10 filter plate (Merck) for filtration. The filter plates were then dried at 40 °C for 4 h, and radiolabeled substrates retained in the vesicles were detected by liquid scintillation counting as described above. For fluorescent substrates, accumulation was measured with a Clariostar^plus microplate reader (BMG Labtech GmbH, Ortenberg, Germany).
The transporter-mediated uptake and ATP-dependent transport were determined by subtracting the activity of the control cell/transporter abundant-membrane in the presence of AMP from the activity of the transporter-overexpressing cell/transporter-abundant membrane in the presence of ATP. The relative transporter-specific accumulation was expressed as the percent of DMSO activity. The results were presented as the mean ± SEM from 3 parallels. More than a 20% reduction in transport activity was considered as inhibition. For the IC50 determination, dose–response curves were fitted using a 4-parameter nonlinear model in GraphPad Prism version 9.0. Confidence intervals (CIs) of 95% were also determined.
Table S3 – Vesicular transport inhibition assay details.
These parameters were set during previous validations. TC: taurocholic acid, E3S: estrone 3 -sulfate, […]

Experimental findings from PMC11597817, “Modulation of Multispecific Transporters by Uncaria tomentosa Extract and Its Major Phytoconstituents” (Pharmaceutics, 2024) are described below.

As a reminder, the IC50 is the midpoint of a concentration-inhibition curve.

The structures appear in SMILES notation. Read-outs that look alike come from different tables or passages of the source.

On to `COC(=O)C1=CO[C@@H](C)[C@H]2CN3CC[C@]4(C(=O)Nc5ccccc54)[C@@H]3C[C@H]12` [mitraphylline], for which the Igut/IC50 ratio is listed as less than 10.
`COC(=O)C1=CO[C@@H](C)[C@@H]2CN3CC[C@@]4(C(=O)Nc5ccccc54)[C@@H]3C[C@H]12` [isopteropodine]: the Igut/IC50 ratio was less than 10 and the IC50 was determined as 54.6 µM. In addition, for the setting “listed as Isopteropodine”, the Igut/IC50 ratio came out at 0.42 and the IC50 turned out to be 54.6 µM.
